# Assay results as given in patent US11746125B2, “Biomimetic peptides derived from biological source and their uses in retarding aging and improving skin” (TCI CO., LTD., priority 2019, dated 2023).
# System: human fibroblast cell line (CCD-966SK)
# Assay: Assay in increasing expression of genes: human fibroblast cells cultured with peptides, RNA detected by nCounter Analysis System
# Assay type: cell-based
# Procedure: A human fibroblast cell line (CCD-966SK) was used to assay gene expression affected by the peptides of the present disclosure. 1×10^5 of fibroblast cells were seeded and cultured in a 6-well plate containing 2 ml of X-VIVO™ 10 medium. […] The cells cultured with the medium only for 6 or 24 hours were used as control.
# The resulting cultured cells were washed with PBS and lysed by adding a lysis reagent. The resulting cell lysis solutions were extracted by RNA Extraction Kit (GENEzol™ 96 Well TriRNA Pure Kit, Geneaid) to collect the RNAs in the cells. The expression of genes was detected by the nCounter Analysis System (NanoString Technologies, Inc.)
# [1] = peptides 12.5 and 25 μg/ml, 6 or 24 hours
# [2] = 12.5 μg/ml, 24 hours, vs control
substance,measurement,setting,value
"QKRRTCK [Heter-7, synthetic 7-mer peptide QKRRTCK]",MMP1,"2.5 μg/ml, 12 hours, vs control",inhibiting
same,expression of collagen I gene,"12.5 μg/ml, vs control",increases
same,expression of TIMP1 gene,"25 μg/ml, 12 hours, vs control",increases
same,expression of anti-aging genes (Atg1 and Ub15),"25 μg/ml, 12 hours, vs control",increase
same,expression of telomerase gene (TERC),"25 μg/ml, 12 hours, vs control",increase
same,expression of DNA repair genes (ERCC1 and XRCC5),"25 μg/ml, vs control",increase
same,expression of anti-oxidation gene SOD2,"25 μg/ml, vs control",increase
same,expression of DNA repair genes (ERCC1 and XRCCS),peptides 12.5 and 25 μg/ml,increases
same,expression of anti-aging genes (Atg1 and Ubl5),peptides 12.5 and 25 μg/ml,increases
same,expression of anti-oxidation gene SOD2,peptides 12.5 and 25 μg/ml,increases
same,expression of TIMP1,[1],increases
same,expression of collagen I gene,[1],increases
same,expression of genes relating to collagen breakdown (MMP-1),[1],inhibiting
same,expression of telomerase genes (TERC),[1],increases
"QRIKYIKP [Chiro-8, synthetic 8-mer peptide QRIKYIKP]",expression of moisture-retention related genes (SMPD1),"12.5 μg/ml and 25 μg/ml, 24 hours, vs control",increase
same,"expression of anti-aging genes (NADSYN, MRPS5, Ub1-5 and/or FOXO)",[2],increase
same,expression of collagen I gene (COLA1),"12.5 μg/ml, vs control",increases
same,expression of collagen IV gene (COL4A1),"12.5 μg/ml, vs control",increases
same,expression of elastin gene (ELN),"12.5 μg/ml, vs control",increases
same,expression of anti-inflammatory factor IL-6,24 hours,inhibits
same,expression of MMP1,"24 hours, vs control",inhibiting
same,"expression of anti-aging genes (NADSYN, MRPS5, Ub1-5 and/or FOXO)",[1],increase
same,expression of anti-inflammatory factor IL-6,[1],inhibits
same,expression of collagen I gene,[1],increases
same,expression of elastin genes,[1],increases
same,expression of genes relating to collagen breakdown (MMP-1),[1],inhibiting
same,expression of moisture-retention related genes (SMPD1),[1],increases
"PRPIK [Hapa-5, synthetic 5-mer peptide PRPIK]",expression of DNA repair genes (ERCC1),[2],increase
same,expression of telomerase genes (TERC),[2],increase
same,"expression of anti-aging genes (Atg1, Ub1-5 and FOXO)","25 μg/ml, 24 hours, vs control",increase
same,expression of genes relating to collagen breakdown (MMP-1),"25 μg/ml, 24 hours, vs control",inhibits
same,expression of TIMP1,"6 hours, vs control",increases
same,expression of collagen IV genes (COL4A1),"6 hours, vs control",increases
same,expression of elastin genes (ELN),"6 hours, vs control",increases
same,expression of DNA repair genes (ERCC1),[1],increase
same,expression of TIMP1,[1],increase
same,"expression of anti-aging genes (Atg1, Ubl-5 and FOXO)",[1],increase
same,expression of collagen IV gene,[1],increase
same,expression of elastin genes,[1],increase
same,expression of genes relating to collagen breakdown (MMP-1),[1],inhibits
same,expression of moisture-retention related genes (ELG-F and GBA),[1],increase
same,expression of telomerase genes (TERC),[1],increase
same,expressions of moisture-retention related genes (ELG-F and GBA),"vs control, concentration not given",increase
"KIFKF [Chiro-5, synthetic 5-mer peptide KIFKF]","expression of anti-aging genes (NADSYN, MRPS5, Ub1-5 and/or FOXO)",[2],increase
same,expression of MMP1,"25 μg/ml, vs control",inhibiting
same,expression of collagen I gene (COL1A2),"25 μg/ml, vs control",increase
same,"expression of anti-aging genes (NADSYN, MRPS5, Ub1-5 and/or FOXO)",[1],increase
same,expression of collagen I gene,[1],increases
same,expression of genes relating to collagen breakdown (MMP-1),[1],inhibiting
"TKSGKF [Latrol-6, synthetic 6-mer peptide TKSGKF]",expression of SMPD1 (moisture-retention related gene) and/or HAS2,"25 μg/ml, 6 hours, vs control",increases
same,"expression of anti-aging genes (NADSYN, Atgl, MRPS5)","25 μg/ml, 24 hours, vs control",increases
same,expression of collagen I gene (COL1A1),"25 μg/ml, 24 hours, vs control",increases
same,expression of collagen IV gene (COL4A1),"25 μg/ml, 24 hours, vs control",increases
same,expression of elastin gene (ELN),"25 μg/ml, 24 hours, vs control",increases
same,expression of DNA repair genes (UNG and MSH6),"6 hours or 24 hours, vs control",increases
same,expression of telomerase genes (TERC),"6 hours, vs control",increase
same,"expression of DNA repair genes (UNG, MSH6, XRCCS and/or MSH6)",[1],increase
same,expression of SMPD1 (moisture-retention related genes) and/or HSAS2,[1],increases
same,"expression of anti-aging genes (NADSYN, Atg1, MRPS5, CCT2 and/or CCT8)",[1],increase
same,expression of collagen I gene,[1],increases
same,expression of collagen IV gene,[1],increases
same,expression of elastin genes,[1],increases
same,expression of genes relating to collagen breakdown (MMP-1),[1],inhibiting
same,expression of telomerase genes (TERC),[1],increase
same,expression of collagen I gene,text summary referring to FIG. 12 (A),increases
"VKNAKY [Hapa-6, synthetic 6-mer peptide VKNAKY]","expression of anti-aging genes (Atg1, Ub1-5 and FOXO)","12.5 μg/ml, 6 hours, vs control",increase
same,expression of genes relating to collagen breakdown (MMP-1),[2],inhibits
same,expressions of moisture-retention related genes (ELG-F and GBA),"25 μg/ml, vs control",increase
same,expression of DNA repair genes (ERCC1),"12.5 and 25 μg/ml, 6 hours, vs control",increase
same,expression of telomerase genes (TERC),"12.5 and 25 μg/ml, 24 hours, vs control",increase
same,expression of TIMP1,"6 hours, vs control",increase
same,expression of elastin genes (ELN),"6 hours, vs control",increase
same,expression of collagen I genes (COL1A2),"24 hours, vs control",increase
same,expression of DNA repair genes (ERCC1),[1],increase
same,expression of TIMP1,[1],increase
same,"expression of anti-aging genes (Atg1, Ubl-5 and FOXO)",[1],increase
same,expression of collagen I gene,[1],increase
same,expression of elastin genes,[1],increase
same,expression of genes relating to collagen breakdown (MMP-1),[1],inhibits
same,expression of moisture-retention related genes (ELG-F and GBA),[1],increase
same,expression of telomerase genes (TERC),[1],increase
"LKSGR [Latrol-5, synthetic 5-mer peptide LKSGR]","expression of anti-aging genes (NADSYN, CCT2 and CCT8)","25 μg/ml, 6 hours, vs control",increases
same,expression of collagen I gene (COL1A2),"25 μg/ml, 6 hours, vs control",increases
same,expression of genes relating to collagen breakdown (MMP-1),"25 μg/ml, 6 hours, vs control",inhibiting
same,expression of DNA repair genes (XRCC5 and/or MSH6),"6 hours, vs control",increases
same,expression of telomerase genes (TERC),"24 hours, vs control",increase
same,"expression of DNA repair genes (UNG, MSH6, XRCCS and/or MSH6)",[1],increase
same,"expression of anti-aging genes (NADSYN, Atg1, MRPS5, CCT2 and/or CCT8)",[1],increase
same,expression of telomerase genes (TERC),[1],increase
